What is called IC50 is the concentration needed to halve the response being measured.

Chain of recombinant mTOR (FLAG-tagged, residues 1362-2549) (P42345 1362-2549): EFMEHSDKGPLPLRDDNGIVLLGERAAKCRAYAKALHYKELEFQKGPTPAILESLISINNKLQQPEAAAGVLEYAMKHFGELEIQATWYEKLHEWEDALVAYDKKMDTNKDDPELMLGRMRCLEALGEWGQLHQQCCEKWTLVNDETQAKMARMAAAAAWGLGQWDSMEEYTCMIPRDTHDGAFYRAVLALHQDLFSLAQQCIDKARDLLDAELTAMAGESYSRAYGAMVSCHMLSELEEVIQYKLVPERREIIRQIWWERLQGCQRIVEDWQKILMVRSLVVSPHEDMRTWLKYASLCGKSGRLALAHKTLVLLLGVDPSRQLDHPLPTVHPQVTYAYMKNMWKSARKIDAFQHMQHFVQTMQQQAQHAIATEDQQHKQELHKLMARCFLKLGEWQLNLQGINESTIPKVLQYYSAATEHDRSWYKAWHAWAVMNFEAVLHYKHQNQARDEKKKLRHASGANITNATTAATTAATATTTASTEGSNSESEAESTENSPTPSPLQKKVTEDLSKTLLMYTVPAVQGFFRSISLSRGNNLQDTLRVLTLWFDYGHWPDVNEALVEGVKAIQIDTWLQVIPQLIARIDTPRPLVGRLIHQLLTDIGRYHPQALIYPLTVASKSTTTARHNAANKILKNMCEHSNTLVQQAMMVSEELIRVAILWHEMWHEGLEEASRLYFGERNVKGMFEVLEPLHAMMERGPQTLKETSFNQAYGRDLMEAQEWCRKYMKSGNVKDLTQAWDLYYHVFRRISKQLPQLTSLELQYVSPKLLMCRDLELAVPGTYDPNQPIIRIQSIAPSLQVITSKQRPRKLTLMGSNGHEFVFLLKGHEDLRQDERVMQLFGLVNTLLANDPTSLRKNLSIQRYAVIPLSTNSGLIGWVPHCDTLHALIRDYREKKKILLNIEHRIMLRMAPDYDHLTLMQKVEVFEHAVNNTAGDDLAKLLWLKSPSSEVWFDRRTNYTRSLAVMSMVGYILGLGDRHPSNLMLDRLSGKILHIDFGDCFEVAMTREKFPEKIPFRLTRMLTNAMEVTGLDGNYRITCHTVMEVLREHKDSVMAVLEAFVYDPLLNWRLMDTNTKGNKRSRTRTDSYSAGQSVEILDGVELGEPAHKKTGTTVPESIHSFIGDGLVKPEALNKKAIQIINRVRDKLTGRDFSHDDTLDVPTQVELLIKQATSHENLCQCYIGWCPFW

The target in the assay is recombinant mTOR (FLAG-tagged, residues 1362-2549) (Homo sapiens, UniProt P42345). Nature of the assay: In vitro mTOR kinase assay (Test (a), AlphaScreen). Conditions: ATP 20 μM, read-out: Test (a): IC50 versus mTOR kinase. Format: biochemical. A digest of the protocol:
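AlphaScreen read-out: a phospho-T389 p70 S6K antibody on acceptor beads captures the phosphorylated biotin-peptide on donor beads, with signal loss indicating inhibition.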
For orientation: Alpha assays give light when donor and acceptor beads are brought close together.
In the case of `C[C@H]1COCCN1c1cc(CS(C)(=O)=O)nc(-n2ccc(NC(=O)Nc3ccccc3)n2)n1` [Example 25, 1-[1-[4-[(3S)-3-Methylmorpholin-4-yl]-6-(methylsulfonylmethyl)pyrimidin-2-yl]pyrazol-3-yl]-3-phenyl-urea], the IC50 worked out at 1900 nM.

Take `CN1CCC(NC(=O)Nc2ccc(-c3nc(CS(=O)(=O)c4ccccc4)cc(N4CCOCC4)n3)cc2)CC1` [Example 20d, 3-[4-[4-(benzenesulfonylmethyl)-6-morpholin-4-yl-pyrimidin-2-yl]phenyl]-1-(1-methyl-4-piperidyl)urea]: the IC50 came to 1600 nM.

`CS(=O)(=O)Cc1cc(N2CCOCC2)nc(-c2ccc(NC(=O)N3CCNC(=O)C3)cc2)n1` [Example 45v, [4-[4-(methylsulfonylmethyl)-6-morpholin-4-yl-pyrimidin-2-yl]phenyl]-3-oxo-piperazine-1-carboxamide]: the IC50 turned out to be 1200 nM.

As for `C[C@H]1COCCN1c1cc(C(C)(C)S(=O)(=O)C2CC2)nc(-c2ccc(NC(=O)NC3CC3)cc2)n1` [Example 56, 3-Cyclopropyl-1-[4-[4-(2-cyclopropylsulfonylpropan-2-yl)-6-[(3S)-3-methylmorpholin-4-yl]pyrimidin-2-yl]phenyl]urea], the IC50 was found to be 2400 nM.

Regarding `C[C@H]1COCCN1c1cc(CS(=O)(=O)c2ccccc2)nc(-c2ccc(NC(=O)NC3CC3)cc2)n1` [Example 20g, 1-[4-[4-(benzenesulfonylmethyl)-6-[(3S)-3-methylmorpholin-4-yl]pyrimidin-2-yl]phenyl]-3-cyclopropyl-urea], the IC50 turned out to be 39 nM.

With `C[C@H]1COCCN1c1cc(CO)nc(-c2ccc(NC(=O)Nc3ccon3)cc2)n1` [Example 39, 1-[4-[4-(Hydroxymethyl)-6-[(3S)-3-methylmorpholin-4-yl]pyrimidin-2-yl]phenyl]-3-(1,2-oxazol-3-yl)urea], the IC50 came to 75 nM.

Regarding `CN(C)CCCCNC(=O)Nc1ccc(-c2nc(CS(C)(=O)=O)cc(N3CCOCC3)n2)cc1` [Example 45d, 1-(4-dimethylaminobutyl)-3-[4-[4-(methylsulfonylmethyl)-6-morpholin-4-yl-pyrimidin-2-yl]phenyl]urea], the IC50 is 560 nM.

As for `CN(C)CCNC(=O)Nc1ccc(-c2nc(CS(=O)(=O)c3ccccc3)cc(N3CCOCC3)n2)cc1` [Example 20c, 3-[4-[4-(benzenesulfonylmethyl)-6-morpholin-4-yl-pyrimidin-2-yl]phenyl]-1-(2-dimethylaminoethyl)urea], the IC50 was found to be 1000 nM.

Take `C[C@H]1COCCN1c1cc(C(C)(C)S(C)(=O)=O)nc(-c2cnc(NC(=O)Nc3cnn(C)c3)s2)n1` [Example 47b, 1-[5-[4-[(3S)-3-methylmorpholin-4-yl]-6-(2-methylsulfonylpropan-2-yl)pyrimidin-2-yl]-1,3-thiazol-2-yl]-3-(1-methylpyrazol-4-yl)urea]: the IC50 amounted to 410 nM.

On to `CCNC(=O)Nc1ncc(-c2nc(CS(C)(=O)=O)cc(N3CCOC[C@@H]3C)n2)s1` [Example 46b, 1-ethyl-3-[5-[4-[(3S)-3-methylmorpholin-4-yl]-6-(methylsulfonylmethyl)pyrimidin-2-yl]-1,3-thiazol-2-yl]urea], for which the IC50 came out at 6.1 nM.

With `O=C(Nc1ccc(-c2nc(CS(=O)(=O)c3ccccc3)cc(N3CCOCC3)n2)cc1)NC1CC1` [Example 20b, 1-[4-[4-(benzenesulfonylmethyl)-6-morpholin-4-yl-pyrimidin-2-yl]phenyl]-3-cyclopropyl-urea], the IC50 amounted to 170 nM.

For `C[C@H]1COCCN1c1cc(CS(C)(=O)=O)nc(-c2ccc(NC(=O)N3CCC3)c(F)c2)n1` [Example 4a, N-[2-Fluoro-4-[4-[(3S)-3-methylmorpholin-4-yl]-6-(methylsulfonylmethyl)pyrimidin-2-yl]phenyl]azetidine-1-carboxamide], the IC50 turned out to be 1000 nM.

Consider `CC(C)NC(=O)Nc1ccc(-c2nc(CS(C)(=O)=O)cc(N3CCOC[C@@H]3C)n2)cc1F` [Example 4b, 3-[2-fluoro-4-[4-[(3S)-3-methylmorpholin-4-yl]-6-(methylsulfonylmethyl)pyrimidin-2-yl]phenyl]-1-propan-2-yl-urea], for which the IC50 is 140 nM.

In the case of `CCNC(=O)NC1CCN(c2nc(CS(C)(=O)=O)cc(N3CCOC[C@@H]3C)n2)CC1` [Example 23a, 1-ethyl-3-[1-[4-[(3S)-3-methylmorpholin-4-yl]-6-(methylsulfonylmethyl)pyrimidin-2-yl]-4-piperidyl]urea], the IC50 turned out to be 3700 nM.

Regarding `C[C@H]1COCCN1c1cc(CS(C)(=O)=O)nc(-c2cnc(NC(=O)Nc3ccccc3)s2)n1` [Example 46c, 1-[5-[4-[(3S)-3-methylmorpholin-4-yl]-6-(methylsulfonylmethyl)pyrimidin-2-yl]-1,3-thiazol-2-yl]-3-phenyl-urea], the IC50 was 450 nM.

For the molecule `C[C@H]1COCCN1c1cc(CN2CCN(C)CC2)nc(-c2ccc(NC(=O)NCc3cnn(C)c3)cc2)n1` [Example 52, 1-[4-[4-[(3S)-3-Methylmorpholin-4-yl]-6-[(4-methylpiperazin-1-yl)methyl]pyrimidin-2-yl]phenyl]-3-[(1-methylpyrazol-4-yl)methyl]urea], the IC50 worked out at 1400 nM.

As to `CS(=O)(=O)Cc1cc(N2CCOCC2)nc(-c2ccc(NC(=O)NCCN3CCOCC3)cc2)n1` [Example 45o, 1-[4-[4-(methylsulfonylmethyl)-6-morpholin-4-yl-pyrimidin-2-yl]phenyl]-3-(2-morpholin-4-ylethyl)urea], the IC50 was 900 nM.

For `CNC(=O)Nc1ccc(-c2nc(CS(C)(=O)=O)cc(N3CCOC[C@@H]3C)n2)cc1C` [Example 8j, 3-Methyl-1-[2-methyl-4-[4-[(3S)-3-methylmorpholin-4-yl]-6-(methylsulfonylmethyl)pyrimidin-2-yl]phenyl]urea], the IC50 is 160 nM.

For the molecule `C[C@H]1COCCN1c1cc(CS(C)(=O)=O)nc(-c2ccc(N(C)C(=O)Nc3ccccc3)cc2)n1` [Example 3d, 1-Methyl-1-[4-[4-[(3S)-3-methylmorpholin-4-yl]-6-(methylsulfonylmethyl)pyrimidin-2-yl]phenyl]-3-phenyl-urea], the IC50 stood at 2900 nM.

Consider `CS(=O)(=O)Cc1cc(N2CCOCC2)nc(-c2ccc(NC(=O)N3CCCCC3)cc2)n1` [Example 45a, N-[4-[4-(methylsulfonylmethyl)-6-morpholin-4-yl-pyrimidin-2-yl]phenyl]piperidine-1-carboxamide], for which the half-maximal inhibitory concentration (IC50) was found to be 630 nM.

With `CN(C)CCN(C)C(=O)Nc1ccc(-c2nc(CS(C)(=O)=O)cc(N3CCOCC3)n2)cc1` [Example 8c, 1-(2-dimethylaminoethyl)-1-methyl-3-[4-[4-(methylsulfonylmethyl)-6-morpholin-4-yl-pyrimidin-2-yl]phenyl]urea], the IC50 was determined as 2200 nM.

Consider `CNC(=O)C1CCN(C(=O)Nc2ccc(-c3nc(CS(C)(=O)=O)cc(N4CCOCC4)n3)cc2)CC1` [Example 45y, N′-methyl-N-[4-[4-(methylsulfonylmethyl)-6-morpholin-4-yl-pyrimidin-2-yl]phenyl]piperidine-1,4-dicarboxamide], for which the IC50 was 1200 nM.

On to `C[C@H]1COCCN1c1cc(CS(=O)(=O)c2ccncc2)nc(-c2ccc(NC(=O)NC3CC3)cc2)n1` [Example 43, 3-Cyclopropyl-1-[4-[4-[(3S)-3-methylmorpholin-4-yl]-6-(pyridin-4-ylsulfonylmethyl)pyrimidin-2-yl]phenyl]urea], for which the IC50 came out at 76 nM.

In the case of `COc1ccc(NC(=O)Nc2ccc(-c3nc(N4CCOC[C@@H]4C)cc(C(C)(C)S(C)(=O)=O)n3)cc2)cn1` [Example 24x, 3-(6-methoxypyridin-3-yl)-1-[4-[4-[(3S)-3-methylmorpholin-4-yl]-6-(2-methylsulfonylpropan-2-yl)pyrimidin-2-yl]phenyl]urea], the IC50 came to 100 nM.

Take `CNC(=O)Nc1ccc(-c2nc(N3CCOC[C@@H]3C)cc(C(C)(C)S(C)(=O)=O)n2)cc1` [Example 21f, 3-methyl-1-[4-[4-[(3S)-3-methylmorpholin-4-yl]-6-(2-methylsulfonylpropan-2-yl)pyrimidin-2-yl]phenyl]urea]: the IC50 amounted to 17 nM.

On to `CNC(=O)Nc1ncc(-c2nc(N3CCOC[C@@H]3C)cc(C(C)(C)S(C)(=O)=O)n2)cn1` [Example 24bh, 3-methyl-1-[5-[4-[(3S)-3-methylmorpholin-4-yl]-6-(2-methylsulfonylpropan-2-yl)pyrimidin-2-yl]pyrimidin-2-yl]urea], for which the IC50 amounted to 12 nM.

Consider `CC(C)CNC(=O)Nc1ccc(-c2nc(CS(C)(=O)=O)cc(N3CCOC[C@@H]3C)n2)cc1` [Example 8f, 1-[4-[4-[(3S)-3-Methylmorpholin-4-yl]-6-(methylsulfonylmethyl)pyrimidin-2-yl]phenyl]-3-(2-methylpropyl)urea], for which the IC50 came to 300 nM.

For the molecule `CC(=O)NCCS(=O)(=O)Cc1cc(N2CCOC[C@@H]2C)nc(-c2ccc(NC(=O)Nc3ccccc3)cc2)n1` [Example 11, N-[2-[[6-[(3S)-3-methylmorpholin-4-yl]-2-[4-(phenylcarbamoylamino)phenyl]pyrimidin-4-yl]methylsulfonyl]ethyl]acetamide], the IC50 stood at 140 nM.

As to `C[C@H]1COCCN1c1cc(CS(=O)(=O)c2ccccc2)nc(-c2ccc(NC(=O)NCCN(C)C)cc2)n1` [Example 20h, 1-[4-[4-(benzenesulfonylmethyl)-6-[(3S)-3-methylmorpholin-4-yl]pyrimidin-2-yl]phenyl]-3-(2-dimethylaminoethyl)urea], the IC50 came out at 440 nM.

As for `CNC(=O)Nc1ccc(-c2nc(CS(=O)(=O)c3ccccc3C)cc(N3CCOC[C@@H]3C)n2)cc1` [Example 33e, 3-methyl-1-[4-[4-[(3S)-3-methylmorpholin-4-yl]-6-[(2-methylphenyl)sulfonylmethyl]pyrimidin-2-yl]phenyl]urea], the IC50 is 88 nM.

With `COc1ccc(NC(=O)Nc2ccc(-c3nc(CS(C)(=O)=O)cc(N4CCOC[C@@H]4C)n3)cc2OC)cc1` [Example 1i, 3-[2-methoxy-4-[4-[(3S)-3-methylmorpholin-4-yl]-6-(methylsulfonylmethyl)pyrimidin-2-yl]phenyl]-1-(4-methoxyphenyl)urea], the IC50 was 550 nM.

These data come from US7750003B2, “Compounds-943” (AstraZeneca AB, priority 2006, dated 2010).
